MIC data for 51 compounds are collected here from patent US10071082B2, “Antimicrobial agents” (Rutgers, The State University of New Jersey, priority 2013, dated 2018).

One experiment has as its system MRSA. Put plainly: Test A antibacterial assay, broth microdilution MIC. The class given is cell-based. As to conditions: Staphylococcus aureus, read-out: MIC MRSA. The protocol:
(§1) Antibacterial activity can be determined as per Clinical and Laboratory Standards Institute (CLSI) guidelines using a broth microdilution assay in which log-phase bacteria are grown at 37° C. in appropriate medium containing two-fold serial dilutions of a compound to yield final concentrations ranging from 256 to 0.06 μg/mL. For determination of minimal inhibitory concentration (MIC) values, bacterial growth is monitored after 24 to 48 hours by measuring optical density at 600 nm.

In the next experiment the test system is MSSA. Described as above. The class given is cell-based. As to conditions: Staphylococcus aureus, read-out: MIC MSSA. As to the method: as §1
Setting [1] is: MIC determined in the presence of 50% mouse serum.
[2] abbreviates: MIC values may be lower as solubility and aggregate formation may reduce observed activity.

Converted amounts (≈) assume the structure as drawn. Where two headings read alike, the source gives them in different places.

As for `O=CNC(=O)c1c(F)ccc(OCc2nc3cc(Cl)ccc3s2)c1F` [Example 1], the MIC in the experiment on MRSA came out at 0.125 µg/mL (≈ 0.327 µM); in the experiment on MSSA, 0.25 µg/mL (≈ 0.653 µM).

For `CN(C)/C=N/C(=O)c1c(F)ccc(OCc2nc3cc(Cl)ccc3s2)c1F` [Example 1b, 3-((5-Chlorobenzo[d]thiazol-2-yl)methoxy)-N-((dimethylamino)methylene)-2,6-difluorobenzamide], the MIC with MRSA and in the experiment with MSSA was 0.125 µg/mL (≈ 0.305 µM) throughout. In the case of `CC(=O)NC(=O)c1c(F)ccc(OCc2nc3cc(Cl)ccc3s2)c1F` [Example 2], the MIC in the experiment with MRSA stood at 4 µg/mL (≈ 10.1 µM); with MSSA it was 2 µg/mL (≈ 5.04 µM).

`C/C(=N\C(=O)c1c(F)ccc(OCc2nc3cc(Cl)ccc3s2)c1F)N(C)C` [Example 2a, 3-((5-Chlorobenzo[d]thiazol-2-yl)methoxy)-N-(1-(dimethylamino)ethylidene)-2,6-difluorobenzamide]: the MIC in the experiment on MRSA amounted to 4 µg/mL (≈ 9.44 µM); in the experiment with MSSA, 2 µg/mL (≈ 4.72 µM). Taken in the same sequence, the figures for `O=CNC(=O)c1c(F)ccc(OCc2nc3cc(Cl)cnc3s2)c1F` [Example 3] were 0.5 µg/mL (≈ 1.3 µM) and 0.5 µg/mL (≈ 1.3 µM). Turning to `CN(C)/C=N/C(=O)c1c(F)ccc(OCc2nc3cc(Cl)cnc3s2)c1F` [Example 3b, 3-((6-Chlorothiazolo[5,4-b]pyridin-2-yl)methoxy)-N-((dimethylamino)methylene)-2,6-difluorobenzamide], the MIC came to 1 µg/mL (≈ 2.43 µM) in the experiment on MRSA and 0.5 µg/mL (≈ 1.22 µM) in the experiment on MSSA. Consider `CC(=O)NC(=O)c1c(F)ccc(OCc2nc3cc(Cl)cnc3s2)c1F` [Example 4], for which, in the experiment with MSSA (setting [1]), the MIC was found to be 2 µg/mL. As for `C/C(=N\C(=O)c1c(F)ccc(OCc2nc3cc(Cl)cnc3s2)c1F)N(C)C` [Example 4a, 3-((6-Chlorothiazolo[5,4-b]pyridin-2-yl)methoxy)-N-(1-(dimethylamino)ethylidene)-2,6-difluorobenzamide], the MIC in the experiment with MRSA and with MSSA was 4 µg/mL (≈ 9.41 µM) in each case. Consider `CCCC(=O)NC(=O)c1c(F)ccc(OCc2nc3cc(Cl)ccc3s2)c1F` [Example 6], for which the results for the MIC in the experiment with MRSA (setting [2]) and in the experiment on MSSA (setting [2]) were 1 µg/mL (≈ 2.35 µM) and 0.5 µg/mL (≈ 1.18 µM), respectively.

As to `O=C(NC(=O)C1CCCCC1)c1c(F)ccc(OCc2nc3cc(Cl)ccc3s2)c1F` [Example 7], the MIC in the experiment with MSSA (setting [2]) amounted to 0.5 µg/mL (≈ 1.08 µM).

For `CN1CCC(C(=O)NC(=O)c2c(F)ccc(OCc3nc4cc(Cl)ccc4s3)c2F)CC1` [Example 8], the MIC in the experiment with MRSA and in the experiment with MSSA was 0.5 µg/mL (≈ 1.04 µM) each time. With `O=C(NC(=O)c1c(F)ccc(OCc2nc3cc(Cl)ccc3s2)c1F)c1ccccc1` [Example 9], in the experiment with MSSA (setting [2]), the MIC worked out at 0.5 µg/mL (≈ 1.09 µM). Consider `O=C(CCl)NC(=O)c1c(F)ccc(OCc2nc3cc(Cl)ccc3s2)c1F` [Example 10], for which the MIC in the experiment with MRSA amounted to 0.25 µg/mL (≈ 0.58 µM); with MSSA, 0.125 µg/mL (≈ 0.29 µM).

With `CC1CCN(CC(=O)NC(=O)c2c(F)ccc(OCc3nc4cc(Cl)ccc4s3)c2F)CC1` [Example 11], the figures for the MIC in the experiment on MRSA and in the experiment on MSSA were 1 µg/mL (≈ 2.02 µM) and 0.5 µg/mL (≈ 1.01 µM), respectively. Consider `O=C(Cn1ccnc1)NC(=O)c1c(F)ccc(OCc2nc3cc(Cl)ccc3s2)c1F` [Example 12], for which the MIC with MRSA was determined as 0.25 µg/mL (≈ 0.54 µM); with MSSA it was 0.125 µg/mL (≈ 0.27 µM). Turning to `O=C(NC(=O)c1c(F)ccc(OCc2nc3cc(Cl)ccc3s2)c1F)c1ccc(CCl)cc1` [Example 13], the MIC in the experiment with MSSA (setting [1]) is 4 µg/mL. On to `O=C(c1c(F)ccc(OCc2nc3cc(Cl)ccc3s2)c1F)N(C(=O)C(F)(F)F)C(=O)C(F)(F)F` [Example 14], for which the MIC with MSSA (setting [1]) stood at 2 µg/mL. As to `CS(=O)(=O)NC(=O)c1c(F)ccc(OCc2nc3cc(Cl)ccc3s2)c1F` [Example 15], the MIC in the experiment on MRSA and with MSSA was 8 µg/mL (≈ 18.5 µM) each time.

Consider `O=C(NCO)c1c(F)ccc(OCc2nc3cc(Cl)ccc3s2)c1F` [Example 16], for which the MIC with MRSA and in the experiment on MSSA was 2 µg/mL (≈ 5.2 µM) each time.

For `O=C(NC(=O)c1c(F)ccc(OCc2nc3cc(Cl)ccc3s2)c1F)c1c(Cl)ccnc1Cl` [Example 18], the MIC with MRSA and in the experiment with MSSA was above 64 µg/mL in each case.

Consider `O=C(NC(=O)c1c(F)ccc(OCc2nc3cc(Cl)ccc3s2)c1F)c1ccnc(Cl)c1Cl` [Example 19], for which the figures for the MIC in the experiment with MRSA and in the experiment with MSSA were 4 µg/mL (≈ 7.56 µM) and above 64 µg/mL, respectively. Taken in the same sequence, the figures for `CC(C)(C)C(=O)NC(=O)c1c(F)ccc(OCc2nc3cc(Cl)ccc3s2)c1F` [Example 20] were 4 µg/mL (≈ 9.11 µM) and above 64 µg/mL. Taken in the same sequence, the figures for `O=C(Cc1ccccc1)NC(=O)c1c(F)ccc(OCc2nc3cc(Cl)ccc3s2)c1F` [Example 21] were 2 µg/mL (≈ 4.23 µM) and above 64 µg/mL. Take `O=C(NC(=O)C1CCC1)c1c(F)ccc(OCc2nc3cc(Cl)ccc3s2)c1F` [Example 22]: the MIC in the experiment with MRSA was 2 µg/mL (≈ 4.58 µM); with MSSA, 0.5 µg/mL (≈ 1.14 µM). Taken in the same sequence, the figures for `CC(C(=O)NC(=O)c1c(F)ccc(OCc2nc3cc(Cl)ccc3s2)c1F)c1ccccc1` (stereo not shown) [Example 23] were 2 µg/mL (≈ 4.11 µM) and above 64 µg/mL. In the same order, the values of `O=C(NC(=O)c1c(F)ccc(OCc2nc3cc(Cl)ccc3s2)c1F)c1c(Cl)cccc1Cl` [Example 24] are above 64 µg/mL and above 64 µg/mL. Consider `CCC(C)C(=O)NC(=O)c1c(F)ccc(OCc2nc3cc(Cl)ccc3s2)c1F` (stereo not shown) [Example 25], for which the results for the MIC in the experiment on MRSA and in the experiment with MSSA were 2 µg/mL (≈ 4.56 µM) and above 64 µg/mL, respectively. Taken in the same sequence, the figures for `COC(=O)NC(=O)c1c(F)ccc(OCc2nc3cc(Cl)ccc3s2)c1F` [Example 26] were 8 µg/mL (≈ 19.4 µM) and above 64 µg/mL. Take `CN(C)C(=O)NC(=O)c1c(F)ccc(OCc2nc3cc(Cl)ccc3s2)c1F` [Example 27]: the MIC with MRSA and in the experiment with MSSA was above 64 µg/mL in each case. As for `CCOC(=O)NC(=O)c1c(F)ccc(OCc2nc3cc(Cl)ccc3s2)c1F` [Example 28], the results for the MIC in the experiment with MRSA and with MSSA were 8 µg/mL (≈ 18.7 µM) and above 64 µg/mL, respectively. In the same order, the values of `COc1cccc(COC(=O)NC(=O)c2c(F)ccc(OCc3nc4cc(Cl)ccc4s3)c2F)c1` [Example 29] are 32 µg/mL (≈ 61.7 µM) and 8 µg/mL (≈ 15.4 µM). Taken in the same sequence, the figures for `CC(C)OC(=O)NC(=O)c1c(F)ccc(OCc2nc3cc(Cl)ccc3s2)c1F` [Example 30] were 2 µg/mL (≈ 4.54 µM) and above 64 µg/mL. Taken in the same sequence, the figures for `O=C(NC(=O)c1c(F)ccc(OCc2nc3cc(Cl)ccc3s2)c1F)OCCF` [Example 31] were 4 µg/mL (≈ 8.99 µM) and above 64 µg/mL. Regarding `O=C(NC(=O)c1c(F)ccc(OCc2nc3cc(Cl)ccc3s2)c1F)Oc1ccccc1` [Example 32, Phenyl(3-((5-chlorobenzo[d]thiazol-2-yl)methoxy)-2,6-difluorobenzoyl)carbamate], the MIC in the experiment with MRSA and in the experiment with MSSA was 4 µg/mL (≈ 8.42 µM) in each case. In the case of `CN1CCN(C(=O)NC(=O)c2c(F)ccc(OCc3nc4cc(Cl)ccc4s3)c2F)CC1` [Example 33], the MIC with MRSA and in the experiment with MSSA was above 64 µg/mL throughout.

Regarding `CN1CCC(OC(=O)NC(=O)c2c(F)ccc(OCc3nc4cc(Cl)ccc4s3)c2F)CC1` [Example 34, 1-methylpiperidin-4-yl (3-((5-chlorobenzo[d]thiazol-2-yl)methoxy)-2,6-difluorobenzoyl)carbamate], the MIC with MRSA was found to be 4 µg/mL (≈ 8.07 µM); with MSSA it was 32 µg/mL (≈ 64.5 µM). Consider `CN1CCN(C(=O)NC(=O)c2c(F)ccc(OCc3nc4cc(Cl)cnc4s3)c2F)CC1` [Example 35], for which the figures for the MIC in the experiment with MRSA and with MSSA were 2 µg/mL (≈ 4.15 µM) and 0.25 µg/mL (≈ 0.519 µM), respectively. As for `CC(=O)NC(=O)c1c(F)ccc(OCc2cccc(-c3ccc(C(C)(C)C)cc3)c2)c1F` [Example 36], the MIC in the experiment on MRSA and with MSSA was above 64 µg/mL throughout. For the compound `CC(C)(C)c1cc(C(=O)NC(=O)c2c(F)ccc(OCc3nc4cc(Cl)ccc4s3)c2F)cc(C(C)(C)C)c1` [Example 37], the MIC in the experiment on MRSA is 8 µg/mL (≈ 14 µM); in the experiment on MSSA it was above 64 µg/mL.

As for `CC(=O)NC(=O)c1cccc(OCc2nc3cc(Cl)ccc3s2)c1` [Example 38], the MIC in the experiment with MRSA and in the experiment with MSSA was above 64 µg/mL in each case. Take `CC(=O)NC(=O)c1c(N2CCN(C)CC2)ccc(OCc2nc3cc(Cl)ccc3s2)c1F` [Example 39]: the MIC in the experiment with MRSA and in the experiment with MSSA was above 64 µg/mL throughout. Take `CCC(C)C(=O)NC(=O)c1c(F)ccc(OCc2nc3cc(Cl)cnc3s2)c1F` (stereo not shown) [Example 40]: the MIC with MRSA was 2 µg/mL (≈ 4.55 µM); with MSSA, above 64 µg/mL.

Regarding `CN1CCC(C(=O)NC(=O)c2c(Cl)ccc(OCc3nc4cc(Cl)cnc4s3)c2F)CC1` [Example 41], the MIC in the experiment with MRSA worked out at 8 µg/mL (≈ 16.1 µM); in the experiment with MSSA it was 4 µg/mL (≈ 8.04 µM). For the compound `CN1CCC(C(=O)NC(=O)c2c(F)ccc(OC(CO)c3nc(-c4ccc(C(F)(F)F)cc4)c(Br)o3)c2F)CC1` (stereo not shown) [Example 42], the results for the MIC in the experiment on MRSA and in the experiment with MSSA were 16 µg/mL (≈ 25.3 µM) and 1 µg/mL (≈ 1.58 µM), respectively.

Consider `CCC(=O)N(C(=O)CC)C(=O)c1c(F)ccc(OCc2nc3cc(Cl)ccc3s2)c1F` [Example 43], for which the MIC in the experiment with MRSA and in the experiment with MSSA was 64 µg/mL (≈ 137 µM) in each case. Turning to `CN1CCC(C(=O)NC(=O)c2c(F)ccc(OCc3nc(-c4ccc(OC(F)(F)F)cc4)c(Br)o3)c2F)CC1` [Example 46], the results for the MIC in the experiment with MRSA and in the experiment on MSSA were 4 µg/mL (≈ 6.47 µM) and 1 µg/mL (≈ 1.62 µM), respectively.

Turning to `CN1CCC(C(=O)NC(=O)c2c(F)ccc(OCc3nc(-c4ccc(OC(F)(F)F)cc4)ns3)c2F)CC1` [Example 47], the MIC was 1 µg/mL (≈ 1.8 µM) in the experiment with MRSA and 0.0625 µg/mL (≈ 0.112 µM) in the experiment on MSSA.

For `CC(C)c1csc(COc2ccc(F)c(C(=O)NC(=O)C3CCN(C)CC3)c2F)n1` [Example 48], the MIC in the experiment on MRSA and in the experiment on MSSA was 8 µg/mL (≈ 18.3 µM) in each case. Turning to `CN1CCC(C(=O)NC(=O)c2c(F)ccc(OCc3nc(-c4ccc(C(F)(F)F)cn4)c(Br)o3)c2F)CC1` [Example 49], the MIC is 16 µg/mL (≈ 26.5 µM) in the experiment on MRSA and 2 µg/mL (≈ 3.31 µM) in the experiment on MSSA. Taken in the same sequence, the figures for `CN1CCC(C(=O)NC(=O)c2c(F)ccc(OCc3nc(-c4ccc(C(F)(F)F)cn4)ns3)c2F)CC1` [Example 50] were 4 µg/mL (≈ 7.39 µM) and 1 µg/mL (≈ 1.85 µM). In the same order, the values of `CNC(=O)NC(=O)c1c(F)ccc(OCc2nc3cc(Cl)ccc3s2)c1F` [Example 51] are above 64 µg/mL and above 64 µg/mL.
